Common to all, as to type: in vivo
Experiment [1] deals with Aphis gossypii. Kind of experiment: Aphis gossypii test (cotton leaves dipped into active compound preparation). As to the method: (§1) Solvent: 7 parts by weight of dimethylformamide
(§2) Emulsifier: 2 parts by weight of alkylaryl polyglycol ether
(§3) To produce a suitable preparation of active compound, 1 part by weight of active compound is mixed with the stated amounts of solvent and emulsifier, and the concentrate is diluted with emulsifier-containing water to the desired concentration.
Cotton leaves (Gossypium hirsutum) which are heavily infested by the cotton aphid (Aphis gossypii) are treated by being dipped into the preparation of active compound of the desired concentration.
(§4) After the desired period of time, the kill in % is determined. 100% means that all aphids have been killed; 0% means that none of the aphids have been killed. The kill rates determined are entered into Colby's formula (see page 1).

For experiment [2], the system named is Myzus persicae. The experiment can be described thus: Myzus persicae test (cabbage leaves dipped into active compound preparation). As to the method: as §1, §2, §3
Cabbage leaves (Brassica oleracea) which are heavily infested by the Green peach aphid (Myzus persicae) are treated by being dipped into the preparation of active compound of the desired concentration.
as §4

For experiment [3], the system named is Phaedon cochleariae. The experiment can be described thus: Phaedon cochleariae test (cabbage leaves dipped, populated with larvae). As to conditions: 200 ppm, larvae on cabbage leaves. The protocol:
as §1, §2, §3
After the desired period of time, the kill in % is determined. 100% means that all beetle larvae have been killed; 0% means that none of the beetle larvae have been killed. The kill rates determined are entered into Colby's formula (see page 1).

We go through seven compounds from patent US8324130B2, “Synergistic active ingredient combinations” (Bayer Cropscience AG, priority 2006, dated 2012).

In the case of `CN(Cc1ccc(Cl)nc1)C1=CC(=O)OC1` [compound (Ia), 4-[[(6-chloropyridin-3-yl)methyl](methylamino)]furan-2-(5H)-one], the “Kill in % after 6^d” value stood at 40% in experiment [1] (0.16 ppm), 70% in experiment [1] (0.8 ppm) and 75% in experiment [2] (0.8 ppm). For the same compound, the “Kill in % after 1^d” value came out at 0% in experiment [2] (0.16 ppm) and 40% in experiment [2] (0.8 ppm).
Take `CO/N=C(/C(=O)OC)c1ccccc1CO/N=C(\C)c1cccc(C(F)(F)F)c1` [trifloxystrobin, reference compound]: the “Kill in % after 6^d” value in experiment [1] (100 ppm) was found to be 40%.
Regarding `N#Cc1c[nH]cc1-c1cccc2c1OC(F)(F)O2` [fludioxonil, reference compound], in experiment [1] (100 ppm), the “Kill in % after 6^d” value worked out at 0%. The “Kill in % after 1^d” value in experiment [2] (100 ppm) came to 0%.
For `CCCOC(=O)NCCCN(C)C` [propamocarb, reference compound], the “Kill in % after 3^d” value in experiment [3] turned out to be 5%.
Regarding `COCC(=O)N(c1c(C)cccc1C)C(C)C(=O)OC` (centres unmarked) [metalaxyl, reference compound], the “Kill in % after 1^d” value in experiment [1] (100 ppm) was 10%; in experiment [2] (100 ppm), 0%.
For `OC(Cc1ccccc1Cl)(Cn1nc[nH]c1=S)C1(Cl)CC1` (centres unmarked) [prothioconazole, reference compound], in experiment [2] (100 ppm), the “Kill in % after 1^d” value amounted to 0% and the “Kill in % after 6^d” value is listed as 0%.
Turning to `O=C1C=C(N(Cc2ccc(Cl)nc2)C2CC2)CO1` [compound (Ib), 4-[[(6-chloropyridin-3-yl)methyl] (cyclopropylamino)]furan-2-(5H)-one], in experiment [1] (0.8 ppm), the “Kill in % after 1^d” value is on record as 30% and the “Kill in % after 6^d” value was determined as 40%. The “Kill in % after 1^d” value in experiment [2] (4 ppm) amounted to 75%. For the same compound, in experiment [3], the “Kill in % after 3^d” value amounted to 60%.
